Assay results published in DBAASP.
Values after ≈ are worked out from the molar mass of the structure shown. Values joined by “and” are separate entries in the source; they are usually repeats but may differ in a detail not shown here. Identical values can stand only once. Each block holds one molecule with its values, some of them ahead of it.

How the values were obtained:
Experiment in all cases: ≥ marks a high value that may be exact or a test limit, other limits are often not marked, values filed in µg/mL are converted to µM
Enterococcus faecium = system: Enterococcus faecium
Escherichia coli ML-35p = system: Escherichia coli ML-35p
Escherichia coli BAS 849 = system: Escherichia coli BAS 849
[1] = system: Candida albicans ATCC 10231
[2] = system: Staphylococcus aureus 930918-3
[3] = system: Enterococcus faecalis CDC 21
[4] = system: Listeria monocytogenes EGD
[5] = system: Staphylococcus aureus 28841
[6] = system: Pseudomonas aeruginosa SBI-N
[7] = system: Escherichia coli ATCC 25922
[8] = system: Pseudomonas aeruginosa MR2123
[9] = system: Enterococcus faecium 94-132
[10] = system: Pseudomonas aeruginosa MR3007
[11] = system: Salmonella enterica serovar typhimurium MS7953s
[12] = system: Staphylococcus aureus 30371
[13] = system: Salmonella enterica subsp. enterica serovar Typhimurium ATCC 14028s
[14] = system: Enterococcus faecalis ATCC 29212
Klebsiella pneumoniae = system: Klebsiella pneumoniae
[15] = system: Staphylococcus aureus ΔmprF
[16] = system: Staphylococcus aureus ΔmprFpRBsyn
Serratia rubidaea X01 = system: Serratia rubidaea X01
[17] = system: Bacillus licheniformis X39
[18] = system: Enterococcus faecalis 981
[19] = system: Staphylococcus aureus ATCC 25923
[20] = system: Staphylococcus carnosus KHS
[21] = system: Rhodococcus rhodochrous X15
[22] = system: Psychrobacter faecalis X29
Streptococcus pyogenes = system: Streptococcus pyogenes
[23] = system: Micrococcus luteus ATCC 10240
[24] = system: Staphylococcus epidermidis
[25] = system: Candida albicans ATCC 90112
Proteus mirabilis = system: Proteus mirabilis
[26] = system: Bacillus subtilis ATCC 6633
[27] = system: Pseudomonas aeruginosa ATCC 27853
[28] = system: Stenotrophomonas maltophilia ATCC 13637
Pseudomonas aeruginosa = system: Pseudomonas aeruginosa
[29] = system: Staphylococcus aureus ATCC 2592
[30] = system: Acinetobacter calcoaceticus
Shigella dysenteriae = system: Shigella dysenteriae
Bacillus pumilus = system: Bacillus pumilus
Bacillus cereus = system: Bacillus cereus
[31] = system: Candida albicans ATCC 2002

MIC (Enterococcus faecium): 0.113 µM (≈ 0.3 µg/mL)
MIC (Escherichia coli ML-35p): 0.562 µM (≈ 1.5 µg/mL)
MIC (Escherichia coli BAS 849): 0.562 µM (≈ 1.5 µg/mL)
MIC [1]: 48 µM and > 24 µM
MIC [2]: 0.637 µM (≈ 1.7 µg/mL)
MIC [3]: 0.225 µM (≈ 0.6 µg/mL)
MIC [4]: 0.15 µM (≈ 0.4 µg/mL)
MIC [5]: 0.712 µM (≈ 1.9 µg/mL)
MIC [6]: 0.375 µM (≈ 1 µg/mL)
MIC [7]: 96 µM (≈ 256 µg/mL)
MIC [8]: 0.3 µM (≈ 0.8 µg/mL)
MIC [9]: 0.075 µM (≈ 0.2 µg/mL)
MIC [10]: 0.412 µM (≈ 1.1 µg/mL)
MIC [11]: 0.15 µM (≈ 0.4 µg/mL)
MIC [12]: 1.01 µM (≈ 2.7 µg/mL)
MIC [13]: 0.6 µM (≈ 1.6 µg/mL)
MIC [14]: 96 µM (≈ 256 µg/mL)
MIC (Klebsiella pneumoniae): 0.45 µM (≈ 1.2 µg/mL)
SMILES: CC[C@H](C)[C@H](N=C(O)[C@H](CCCCN)N=C(O)CN=C(O)[C@H](CC(C)C)N=C(O)[C@H](Cc1ccccc1)N=C(O)[C@H](CCC(=N)O)N=C(O)[C@H](Cc1ccccc1)N=C(O)[C@@H](N)C(C)C)C(O)=N[C@H](C(O)=N[C@@H](Cc1cnc[nH]1)C(O)=N[C@@H](Cc1cnc[nH]1)C(O)=N[C@H](C(O)=NCC(O)=N[C@@H](CC(=N)O)C(O)=N[C@@H](Cc1ccccc1)C(O)=N[C@H](C(O)=N[C@@H](Cc1cnc[nH]1)C(O)=NCC(O)=N[C@@H](Cc1ccccc1)C(O)=N[C@@H](CO)C(O)=N[C@@H](Cc1cnc[nH]1)C(O)=N[C@H](C(O)=N[C@@H](Cc1ccccc1)C(=N)O)C(C)C)C(C)C)C(C)C)[C@@H](C)CC [VFQFLGKIIHHVGNFVHGFSHVF]

MIC [15]: 2.93 µM (≈ 8 µg/mL)
MIC [16]: 2.93 µM and 5.86 µM
SMILES: CC(C)C[C@H](NC(=O)[C@@H](NC(=O)CNC(=O)[C@H](CCCN=C(N)N)NC(=O)[C@@H](NC(=O)[C@H](CCCN=C(N)N)NC(=O)[C@@H](NC(=O)[C@H](Cc1ccc(O)cc1)NC(=O)[C@H](C)NC(=O)[C@H](Cc1ccc(O)cc1)NC(=O)[C@@H](NC(=O)[C@H](CO)NC(=O)[C@H](Cc1c[nH]c2ccccc12)NC(=O)[C@@H](N)CCCN=C(N)N)C(C)C)C(C)C)C(C)C)C(C)C)C(=O)N[C@H](C(=O)N[C@@H](CCCN=C(N)N)C(=O)N[C@@H](Cc1ccc(O)cc1)C(=O)N[C@@H](CCCN=C(N)N)C(=O)N[C@@H](CCCN=C(N)N)C(=O)N[C@@H](CO)C(=O)N[C@@H](Cc1c[nH]c2ccccc12)C(=O)O)C(C)C [RWSVYAYVRVRGVLVRYRRSW]

MIC (Serratia rubidaea X01): ≥ 75 µM
MIC [17]: 19 µM (≈ 27.2 µg/mL)
MIC [18]: 19 µM (≈ 27.2 µg/mL)
MIC [19]: 9 µM (≈ 12.9 µg/mL)
MIC [20]: 19 µM (≈ 27.2 µg/mL)
MIC [21]: 9 µM (≈ 12.9 µg/mL)
MIC [22]: ≥ 75 µM
SMILES: CC(C)C[C@H](NC(=O)[C@H](CC(C)C)NC(=O)CNC(=O)[C@H](CCCCN)NC(=O)[C@H](CC(C)C)NC(=O)[C@H](CC(C)C)NC(=O)[C@H](CC(N)=O)NC(=O)CNC(=O)[C@@H](NC(=O)[C@H](Cc1ccccc1)NC(=O)[C@@H]1CCCN1C(=O)[C@H](CC(C)C)NC(=O)[C@@H](N)Cc1ccccc1)C(C)C)C(N)=O [FLPFVGNLLKGLL]

MIC (Streptococcus pyogenes): 30 µM (≈ 44.2 µg/mL)
MIC [23]: 30 µM (≈ 44.2 µg/mL)
MIC [24]: 30 µM (≈ 44.2 µg/mL)
MIC [25]: 7.5 µM (≈ 11.1 µg/mL)
MIC (Proteus mirabilis): ≥ 60 µM
MIC [26]: 30 µM (≈ 44.2 µg/mL)
MIC [19]: 30 µM (≈ 44.2 µg/mL)
MIC [7]: 30 µM (≈ 44.2 µg/mL)
MIC [27]: > 30 µM
MIC [28]: 30 µM (≈ 44.2 µg/mL)
SMILES: CC[C@H](C)[C@H](NC(=O)[C@H](CC(=O)O)NC(=O)[C@@H](N)Cc1ccccc1)C(=O)N[C@@H](CCSC)C(=O)NCC(=O)N[C@@H](CC(C)C)C(=O)N[C@H](C(=O)N[C@@H](CCCCN)C(=O)N[C@@H](CCCCN)C(=O)N[C@H](C(=O)N[C@@H](C)C(=O)NCC(=O)N[C@@H](C)C(=O)N[C@@H](CC(C)C)C(N)=O)C(C)C)[C@@H](C)CC [FDIMGLIKKVAGAL]

MIC (Pseudomonas aeruginosa): 2.91 µM (≈ 5 µg/mL)
MIC [29]: 0.726 µM (≈ 1.25 µg/mL)
MIC [30]: 8.72 µM (≈ 15 µg/mL)
MIC (Shigella dysenteriae): 2.91 µM (≈ 5 µg/mL)
MIC [7]: 0.726 µM (≈ 1.25 µg/mL)
MIC (Bacillus pumilus): 2.91 µM (≈ 5 µg/mL)
MIC (Bacillus cereus): 8.72 µM (≈ 15 µg/mL)
MIC [31]: 0.726 µM (≈ 1.25 µg/mL)
SMILES: CC[C@H](C)[C@H](NC(=O)[C@@H]1CCCN1C(=O)[C@H](Cc1ccccc1)NC(=O)[C@@H](N)Cc1ccccc1)C(=O)N[C@H](C(=O)NCC(=O)N[C@@H](CCCCN)C(=O)N[C@@H](CC(C)C)C(=O)N[C@@H](CC(C)C)C(=O)N[C@@H](Cc1ccccc1)C(=O)NCC(=O)N[C@@H](CC(C)C)C(=O)N[C@@H](CO)C(=O)NCC(=O)N[C@@H](CC(C)C)C(=O)N[C@@H](CC(C)C)C(N)=O)C(C)C [FFPIVGKLLFGLSGLL]
